biological target: T1, human GCGR (Homo sapiens, UniProt P47871); assay: Cellular functional assay, cAMP readout (glucagon-stimulated cAMP, LANCE TR-FRET); type: cell-based; settings: HEK293 cells stably expressing full-length human GCGR; glucagon 100 pM; IC50 converted to Ki; read-out: Inhibition of cAMP Ki
T1 construct: expressed in transfected cells; host or cells: HEK293 (hGluc-1HEK), pcDNA3.1, G418 selection
T1 sequence (P47871 26-477): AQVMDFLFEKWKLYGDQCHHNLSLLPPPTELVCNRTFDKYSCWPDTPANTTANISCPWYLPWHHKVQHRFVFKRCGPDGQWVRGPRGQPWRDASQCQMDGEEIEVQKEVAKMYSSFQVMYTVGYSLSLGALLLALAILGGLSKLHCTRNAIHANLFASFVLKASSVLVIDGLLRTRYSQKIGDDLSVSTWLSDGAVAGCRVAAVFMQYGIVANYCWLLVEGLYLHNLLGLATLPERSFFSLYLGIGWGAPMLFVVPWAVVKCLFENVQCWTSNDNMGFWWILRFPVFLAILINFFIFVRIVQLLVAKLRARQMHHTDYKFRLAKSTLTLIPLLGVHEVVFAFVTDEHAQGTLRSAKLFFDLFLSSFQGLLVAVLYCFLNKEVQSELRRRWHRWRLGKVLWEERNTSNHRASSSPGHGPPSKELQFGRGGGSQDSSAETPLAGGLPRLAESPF

Row | Ki [nM] | Compound
1 | 70 | Cc1c(-c2ccc(C(F)(F)F)c(Cl)c2)ccc2nn(C(CC(C)C)c3ccc(C(=O)NCCC(=O)O)cc3)cc12 (centres unmarked) [Compound #149, 3-(4-(1-(5-(3-Chloro-4-(trifluoromethyl)phenyl)-4-methyl-2H-indazol-2-yl)-3-methylbutyl)benzamido)propanoic acid]
2 | 35 | COc1c(-c2ccc(C(F)(F)F)cc2Cl)ccc2nn([C@@H](CC(C)C)c3ccc(C(=O)NCCC(=O)O)cc3)cc12 [Compound #150, 3-[[4-[(1S)-1-[5-[2-Chloro-4-(trifluoromethyl)phenyl]-4-methoxy-indazol-2-yl]-3-methyl-butyl]benzoyl]amino]propanoic acid]
3 | 13 | Cc1c(-c2ccc(C(F)(F)F)cc2Cl)ccc2nn(C(CC(C)C)c3ccc(C(=O)NCCC(=O)O)nc3)cc12 (centres unmarked) [Compound #154, 3-(5-(1-(5-(2-Chloro-4-(trifluoromethyl)phenyl)-4-methyl-2H-indazol-2-yl)-3-methylbutyl)picolinamido)propanoic acid]
4 | 9 | Cc1cc(C(F)(F)F)ccc1-c1ccc2nn(C(CC(C)C)c3ccc(C(=O)NCCC(=O)O)nc3)cc2c1C (centres unmarked) [Compound #155, 3-(5-(3-Methyl-1-(4-methyl-5-(2-methyl-4-(trifluoromethyl)phenyl)-2H-indazol-2-yl)butyl)picolinamido)propanoic acid]
5 | 22 | Cc1cc(C(F)(F)F)ccc1-c1ccc2nn([C@@H](CC(C)C)c3ccc(C(=O)NCCC(=O)O)cc3)cc2c1C [Compound #156, 3-[[4-[(1S)-3-Methyl-1-[4-methyl-5-[2-methyl-4-(trifluoromethyl)phenyl]indazol-2-yl]butyl]benzoyl]amino]propanoic acid]
6 | 190 | Cc1cc2c(cnn2C(CC(C)C)c2ccc(C(=O)NCCC(=O)O)cc2)cc1-c1cc2cc(F)ccc2s1 (centres unmarked) [Compound #158, 3-[[4-[1-[5-(5-Fluorobenzothiophen-2-yl)-6-methyl-indazol-1-yl]-3-methyl-butyl]benzoyl]amino]propanoic acid]
7 | 3200 | CC(c1ccc(C(=O)NCCC(=O)O)cc1)n1cc2cc(-c3ccc(C(C)(C)C)cc3)ccc2n1 (centres unmarked) [Compound #161, 3-(4-(1-(5-(4-(tert-butyl)phenyl)-2H-indazol-2-yl)ethyl)benzamido) propanoic acid]
8 | 270 | O=C(O)CCNC(=O)c1ccc(C(CCC(F)(F)F)n2ncc3cc(-c4ccc(C(F)(F)F)cc4Cl)ccc32)cc1 (centres unmarked) [Compound #167, 3-[[4-[1-[5-[2-Chloro-4-(trifluoromethyl)phenyl]indazol-1-yl]-4,4,4-trifluorobutyl]benzoyl]amino]propanoic acid]
9 | 191 | Cc1cc(Cl)ccc1-c1ccc2nn(C(CC(C)C)c3ccc(C(=O)NCCC(=O)O)cc3)cc2c1 (centres unmarked) [Compound #168]
10 | 190 | Cc1cc2c(cnn2C(CC(C)C)c2ccc(C(=O)NCCC(=O)O)cc2)cc1-c1cc2ccccc2s1 (centres unmarked) [Compound #174, 3-[[4-[1-[5-(Benzothiophen-2-yl)-6-methyl-indazol-1-yl]-3-methyl-butyl]benzoyl]amino]propanoic acid]
11 | 50 | Cc1cc(C(F)(F)F)ccc1-c1cc2cn(C(CC(C)C)c3ccc(C(=O)NCCC(=O)O)nc3)nc2cc1Cl (centres unmarked) [Compound #176, 3-[[5-[1-[6-Chloro-5-[2-methyl-4-(trifluoromethyl)phenyl]indazol-2-yl]-3-methyl-butyl]pyridine-2-carbonyl]amino]propanoic acid]
12 | 485 | Cc1ccc(-c2ccc3c(cnn3C(CC(C)C)c3ccc(C(=O)NCCC(=O)O)cc3)c2C)c(C)c1 (centres unmarked) [Compound #177, 3-(4-(1-(5-(2,4-Dimethylphenyl)-4-methyl-1H-indazol-1-yl)-3-methylbutyl)benzamido)propanoic acid]
13 | 22 | COc1c(-c2ccc(C(F)(F)F)cc2Cl)ccc2nn(C(CC(C)C)c3ccc(C(=O)NCCC(=O)O)nc3)cc12 (centres unmarked) [Compound #178, 3-(5-(1-(5-(2-Chloro-4-(trifluoromethyl)phenyl)-4-methoxy-2H-indazol-2-yl)-3-methylbutyl)picolinamido)propanoic acid]
14 | 24 | CCOc1c(-c2ccc(C(F)(F)F)cc2Cl)ccc2c1cnn2C(CC(C)C)c1ccc(C(=O)NCCC(=O)O)nc1 (centres unmarked) [Compound #179, 3-(5-(1-(5-(2-Chloro-4-(trifluoromethyl)phenyl)-4-ethoxy-1H-indazol-1-yl)-3-methylbutyl)picolinamido)propanoic acid]
15 | 430 | CC(C)(F)CC(c1ccc(C(=O)NCCC(=O)O)cc1)n1ncc2cc(-c3ccc(C(F)(F)F)cc3)ccc21 (centres unmarked) [Compound #185, 3-(4-(3-Fluoro-3-methyl-1-(5-(4-(trifluoromethyl)phenyl)-1H-indazol-1-yl)butyl)benzamido)propanoic acid]
16 | 30 | Cc1cc(C(F)(F)F)ccc1-c1cc2cn(C(CC(C)C)c3ccc(C(=O)NCCC(=O)O)nc3)nc2cc1C (centres unmarked) [Compound #187, 3-[[5-[3-Methyl-1-[6-methyl-5-[2-methyl-4-(trifluoromethyl)phenyl]indazol-2-yl]butyl]pyridine-2-carbonyl]amino]propanoic acid]

Row | Ki [nM] | Compound
17 | 199 | Cc1cc(C(F)(F)F)ccc1-c1ccc2nn(C(CC(C)C)c3ccc(C(=O)NCCC(=O)O)cc3)cc2c1 (centres unmarked) [Compound #189, 3-(4-(3-Methyl-1-(5-(2-methyl-4-(trifluoromethyl)phenyl)-2H-indazol-2-yl)butyl)benzamido)propanoic acid]
18 | 25 | Cc1c(-c2ccc(Cl)cc2Cl)ccc2nn(C(CC(C)C)c3ccc(C(=O)NCCC(=O)O)cc3)cc12 (centres unmarked) [Compound #190, 3-(4-(1-(5-(2,4-Dichlorophenyl)-4-methyl-2H-indazol-2-yl)-3-methylbutyl)benzamido)propanoic acid]
19 | 35 | COc1c(-c2ccc(C(F)(F)F)cc2Cl)ccc2nn([C@H](CC(C)C)c3ccc(C(=O)NCCC(=O)O)cc3)cc12 [Compound #191, 3-[[4-[(1R)-1-[5-[2-Chloro-4-(trifluoromethyl)phenyl]-4-methoxy-indazol-2-yl]-3-methyl-butyl]benzoyl]amino]propanoic acid]
20 | 22 | COc1c(-c2ccc(C(F)(F)F)cc2C)ccc2c1cnn2[C@@H](CC(C)C)c1ccc(C(=O)NCCC(=O)O)cc1 [Compound #192, 3-[[4-[(1S)-1-[4-Methoxy-5-[2-methyl-4-(trifluoromethyl)phenyl]indazol-1-yl]-3-methyl-butyl]benzoyl]amino]propanoic acid]
21 | 15 | CCOc1c(-c2ccc(C(F)(F)F)cc2C)ccc2c1cnn2C(CC(C)C)c1ccc(C(=O)NCCC(=O)O)nc1 (centres unmarked) [Compound #197, 3-(5-(1-(4-Ethoxy-5-(2-methyl-4-(trifluoromethyl)phenyl)-1H-indazol-1-yl)-3-methylbutyl)picolinamido)propanoic acid]
22 | 60 | Cc1c(-c2ccc(C(F)(F)F)cc2Cl)ccc2c1cnn2C(CC(C)C)c1ccc(C(=O)NCCC(=O)O)nc1 (centres unmarked) [Compound #198, 3-(5-(1-(5-(2-Chloro-4-(trifluoromethyl)phenyl)-4-methyl-1H-indazol-1-yl)-3-methylbutyl)picolinamido)propanoic acid]
23 | 30 | COc1c(-c2ccc(C(F)(F)F)cc2Cl)ccc2c1cnn2[C@@H](CC(C)C)c1ccc(C(=O)NCCC(=O)O)cc1 [Compound #201, 3-[[4-[(1S)-1-[5-[2-Chloro-4-(trifluoromethyl)phenyl]-4-methoxy-indazol-1-yl]-3-methyl-butyl]benzoyl]amino]propanoic acid]
24 | 57 | CCOc1c(-c2ccc(C(F)(F)F)cc2Cl)ccc2nn(C(CC(C)C)c3ccc(C(=O)NCCC(=O)O)nc3)cc12 (centres unmarked) [Compound #205, 3-(5-(1-(5-(2-Chloro-4-(trifluoromethyl)phenyl)-4-ethoxy-2H-indazol-2-yl)-3-methylbutyl)picolinamido)propanoic acid]
25 | 17 | CCOc1c(-c2ccc(C(F)(F)F)cc2C)ccc2nn(C(CC(C)C)c3ccc(C(=O)NCCC(=O)O)nc3)cc12 (centres unmarked) [Compound #207, 3-(5-(1-(4-Ethoxy-5-(2-methyl-4-(trifluoromethyl)phenyl)-2H-indazol-2-yl)-3-methylbutyl)picolinamido)propanoic acid]
26 | 75 | COc1c(-c2ccc(C(F)(F)F)cc2C)ccc2c1cnn2C(CC(C)C)c1ccc(C(=O)NCCC(=O)O)nc1 (centres unmarked) [Compound #213, 3-(5-(1-(4-Methoxy-5-(2-methyl-4-(trifluoromethyl)phenyl)-1H-indazol-1-yl)-3-methylbutyl)picolinamido)propanoic acid]
27 | 32 | Cc1cc(C(F)(F)F)ccc1-c1cc2cnn(C(CC(C)C)c3ccc(C(=O)NCCC(=O)O)nc3)c2cc1C (centres unmarked) [Compound #214, 3-[[5-[3-Methyl-1-[6-methyl-5-[2-methyl-4-(trifluoromethyl)phenyl]indazol-1-yl]butyl]pyridine-2-carbonyl]amino]propanoic acid]
28 | 210 | O=C(O)CCNC(=O)c1ccc(C(CCC2CCC2)n2cc3cc(-c4ccc(C(F)(F)F)cc4)ccc3n2)cc1 (centres unmarked) [Compound #215, 3-(4-(3-Cyclobutyl-1-(5-(4-(trifluoromethyl)phenyl)-2H-indazol-2-yl)propyl)benzamido)propanoic acid]
29 | 950 | O=C(O)CCNC(=O)c1ccc(C(CCC(F)(F)F)n2ncc3cc(-c4ccc(F)cc4Cl)ccc32)cc1 (centres unmarked) [Compound #223, 3-(4-(1-(5-(2-Chloro-4-fluorophenyl)-1H-indazol-1-yl)-4,4,4-trifluorobutyl)benzamido)propanoic acid]
30 | 110 | O=C(O)CCNC(=O)c1ccc(C(CCC(F)(F)F)n2cc3cc(-c4ccc(Cl)cc4Cl)ccc3n2)cc1 (centres unmarked) [Compound #224, 3-[[4-[1-[5-(2,4-Dichlorophenyl)indazol-2-yl]-4,4,4-trifluorobutyl]benzoyl]amino]propanoic acid]
31 | 150 | CC(C)CC(c1ccc(C(=O)NCCC(=O)O)cc1)n1cc2cc(-c3ccc(C(F)(F)F)cc3Cl)ccc2n1 (centres unmarked) [Compound #225, 3-(4-(1-(5-(2-Chloro-4-(trifluoromethyl)phenyl)-2H-indazol-2-yl)-3-methylbutyl)benzamido)propanoic acid]
32 | 242 | CC(C)CC(c1ccc(C(=O)NCCC(=O)O)cc1)n1cc2cc(-c3ccc(Cl)cc3Cl)ccc2n1 (centres unmarked) [Compound #226, 3-(4-(1-(5-(2,4-Dichlorophenyl)-2H-indazol-2-yl)-3-methylbutyl)benzamido)propanoic acid]

Reference: patent publication US10000473B2, “Indazole derivatives useful as glucagon receptor antagonists” (Janssen Pharmaceutica NV, priority 2016, dated 2018)
